# From ChEMBL document CHEMBL3352214, “Studies on indolizines. Evaluation of their biological properties as microtubule-interacting agents and as melanoma targeting compounds” (Eur J Med Chem, 2015)
# Columns and labels:
# [1] = Growth inhibition of human HCT15 cells at 10^-5 M after 48 hrs by SRB assay; format: functional; conditions: HCT-15, 48 h, read-out: GI
# [2] = Growth inhibition of human SF295 cells at 10^-5 M after 48 hrs by SRB assay; format: functional; conditions: SF-295, 48 h, read-out: GI
# [3] = tested on: A498; assay: Growth inhibition of human A498 cells at 10^-5 M after 48 hrs by SRB assay; format: functional; conditions: A498, 48 h, read-out: GI
# [4] = tested on: HL-60(TB); assay: Growth inhibition of human HL-60(TB) cells at 10^-5 M after 48 hrs by SRB assay; format: functional; conditions: HL-60, 48 h, read-out: GI
# [5] = tested on: T47D; assay: Growth inhibition of human T47D cells at 10^-5 M after 48 hrs by SRB assay; format: functional; conditions: Homo sapiens, T47D, 48 h; read-out: GI
# [6] = Growth inhibition of human HOP92 cells at 10^-5 M after 48 hrs by SRB assay; format: functional; conditions: HOP-92, 48 h, read-out: GI
# [7] = Growth inhibition of human MOLT4 cells at 10^-5 M after 48 hrs by SRB assay; format: functional; conditions: MOLT-4, 48 h, read-out: GI
# [8] = tested on: SNB-75; assay: Growth inhibition of human SNB75 cells at 10^-5 M after 48 hrs by SRB assay; format: functional; conditions: SNB-75, 48 h, read-out: GI
# [9] = tested on: Malme-3M; assay: Growth inhibition of human MALME-3M cells at 10^-5 M after 48 hrs by SRB assay; format: functional; conditions: read-out: GI
# [10] = tested on: NCI-H522; assay: Growth inhibition of human NCI-H522 cells at 10^-5 M after 48 hrs by SRB assay; format: functional; conditions: NCI-H522, 48 h, read-out: GI
# [11] = tested on: MDA-MB-435; assay: Growth inhibition of human MDA-MB-435 cells at 10^-5 M after 48 hrs by SRB assay; format: functional; conditions: MDA-MB-435, 48 h, read-out: GI
# [12] = Growth inhibition of human EKVX cells at 10^-5 M after 48 hrs by SRB assay; format: functional; conditions: read-out: GI
# [13] = tested on: MCF7; assay: Growth inhibition of human MCF7 cells at 10^-5 M after 48 hrs by SRB assay; format: functional; conditions: MCF7, 48 h, read-out: GI
# [14] = Inhibition of sheep brain tubulin polymerization by fluorescence assay; parameters: species or system Ovis aries
# [15] = Growth inhibition of human HCT116 cells at 10^-5 M after 48 hrs by SRB assay; format: functional; conditions: HCT-116, 48 h, read-out: GI
# [16] = Growth inhibition of human PC3 cells at 10^-5 M after 48 hrs by SRB assay; format: functional; conditions: PC-3, 48 h, read-out: GI
# [17] = tested on: CAKI-1; assay: Growth inhibition of human Caki1 cells at 10^-5 M after 48 hrs by SRB assay; format: functional; conditions: CAKI-1, 48 h, read-out: GI
# [18] = species: Ovis aries; assay: Inhibition of sheep brain tubulin polymerization at 100 uM by fluorescence assay
# [19] = tested on: SNB-75; assay: Cytotoxicity against human SNB75 cells assessed as cell growth at 10^-5 M after 48 hrs by SRB assay; format: functional; conditions: SNB-75, 48 h, read-out: Activity
# [20] = tested on: HL-60(TB); assay: Growth inhibition of human HL-60(TB) cells after 48 hrs by SRB assay; format: functional; conditions: HL-60, 48 h
# [21] = tested on: HL-60(TB); assay: Cytotoxicity against human HL-60(TB) cells assessed as cell growth at 10^-5 M after 48 hrs by SRB assay; format: functional; conditions: HL-60, 48 h, read-out: Activity
# [22] = tested on: MCF7; assay: Growth inhibition of human MCF7 cells after 48 hrs by SRB assay; format: functional; conditions: MCF7, 48 h
# [23] = tested on: KM12; assay: Growth inhibition of human KM12 cells after 48 hrs by SRB assay; format: functional; conditions: KM12, 48 h
# [24] = tested on: MDA-MB-435; assay: Growth inhibition of human MDA-MB-435 cells after 48 hrs by SRB assay; format: functional; conditions: MDA-MB-435, 48 h
# [25] = tested on: HT-29; assay: Growth inhibition of human HT-29 cells after 48 hrs by SRB assay; format: functional; conditions: HT-29, 48 h
# [26] = tested on: NCI/ADR-RES; assay: Growth inhibition of human NCI/ADR-RES cells after 48 hrs by SRB assay; format: functional
# [27] = tested on: NCI-H522; assay: Growth inhibition of human NCI-H522 cells after 48 hrs by SRB assay; format: functional; conditions: NCI-H522, 48 h
# [28] = Growth inhibition of human PC3 cells after 48 hrs by SRB assay; format: functional; conditions: PC-3, 48 h
# [29] = tested on: K562; assay: Growth inhibition of human K562 cells after 48 hrs by SRB assay; format: functional; conditions: K562, 48 h
# [30] = tested on: A498; assay: Cytotoxicity against human A498 cells assessed as cell growth at 10^-5 M after 48 hrs by SRB assay; format: functional; conditions: A498, 48 h, read-out: Activity
# [31] = tested on: NCI-H522; assay: Cytotoxicity against human NCI-H522 cells assessed as cell growth at 10^-5 M after 48 hrs by SRB assay; format: functional; conditions: NCI-H522, 48 h, read-out: Activity
# [32] = tested on: A498; assay: Growth inhibition of human A498 cells after 48 hrs by SRB assay; format: functional; conditions: A498, 48 h
# [33] = tested on: SR; assay: Growth inhibition of human SR cells after 48 hrs by SRB assay; format: functional
# [34] = Growth inhibition of human OVCAR3 cells after 48 hrs by SRB assay; format: functional; conditions: OVCAR-3, 48 h
# [35] = tested on: MDA-MB-435; assay: Cytotoxicity against human MDA-MB-435 cells assessed as cell growth at 10^-5 M after 48 hrs by SRB assay; format: functional; conditions: MDA-MB-435, 48 h, read-out: Activity
# [36] = Growth inhibition of human COLO205 cells after 48 hrs by SRB assay; format: functional; conditions: COLO 205, 48 h
# [37] = tested on: MDA-MB-468; assay: Growth inhibition of human MDA-MB-468 cells after 48 hrs by SRB assay; format: functional; conditions: MDA-MB-468, 48 h
# [38] = tested on: SNB-75; assay: Growth inhibition of human SNB75 cells after 48 hrs by SRB assay; format: functional; conditions: SNB-75, 48 h
# [39] = tested on: SK-MEL-5; assay: Growth inhibition of human SK-MEL-5 cells after 48 hrs by SRB assay; format: functional; conditions: SK-MEL-5, 48 h
# [40] = tested on: SF-295; assay: Cytotoxicity against human SF295 cells assessed as cell growth at 10^-5 M after 48 hrs by SRB assay; format: functional; conditions: SF-295, 48 h, read-out: Activity
structure (smiles),measurement,setting,value
CCOC(=O)c1cc(C(=O)c2cc(OC)c(OC)c(OC)c2Br)n2ccc(OC)cc12,inhibition of growth at 10 µM,[1],39%
same,inhibition of growth at 10 µM,[2],38%
same,inhibition of growth at 10 µM,[3],23%
same,inhibition of growth at 10 µM,[4],57%
same,inhibition of growth at 10 µM,[5],36%
same,inhibition of growth at 10 µM,[6],39%
same,inhibition of growth at 10 µM,[7],60%
same,inhibition of growth at 10 µM,[8],0%
same,inhibition of growth at 10 µM,[9],0%
same,inhibition of growth at 10 µM,[10],35%
same,inhibition of growth at 10 µM,[11],10%
same,inhibition of growth at 10 µM,[12],52%
same,inhibition of growth at 10 µM,[13],7%
same,IC50,[14],104 µM
same,inhibition of growth at 10 µM,[15],31%
same,inhibition of growth at 10 µM,[16],60%
same,inhibition of growth at 10 µM,[17],51%
same,inhibition,[18],54%
COC(=O)c1c(C(=O)OC)c2c(C)cc(C)cn2c1C(=O)c1ccc(OC)cc1,IC50,[14],81.2 µM
same,inhibition,[18],61%
CCOC(=O)c1cc(C(=O)c2cc(OC)c(OC)c(OC)c2)n2ccc(OC)cc12,inhibition of growth at 10 µM,[1],21%
same,inhibition of growth at 10 µM,[2],32%
same,inhibition of growth at 10 µM,[3],52%
same,inhibition of growth at 10 µM,[4],17%
same,inhibition of growth at 10 µM,[5],5%
same,inhibition of growth at 10 µM,[6],8%
same,inhibition of growth at 10 µM,[7],0%
same,inhibition of growth at 10 µM,[8],12%
same,inhibition of growth at 10 µM,[9],13%
same,inhibition of growth at 10 µM,[10],44%
same,inhibition of growth at 10 µM,[11],89%
same,inhibition of growth at 10 µM,[12],4%
same,inhibition of growth at 10 µM,[13],37%
same,inhibition of growth at 10 µM,[15],18%
same,inhibition of growth at 10 µM,[16],31%
same,inhibition of growth at 10 µM,[17],32%
same,inhibition,[18],9%
CCOC(=O)c1c(C(=O)OCC)c2cc(OC)ccn2c1C(=O)c1cc(OC)c(OC)c(OC)c1,IC50,[14],90.4 µM
same,inhibition,[18],57%
COc1ccc(C(=O)c2cc(C#N)c3c(C)cc(C)cn23)cc1,inhibition of growth at 10 µM,[1],27%
same,growth at 10 µM,[19],-4%
same,inhibition of growth at 10 µM,[2],30%
same,inhibition of growth at 10 µM,[3],53%
same,inhibition of growth at 10 µM,[4],0%
same,inhibition of growth at 10 µM,[5],60%
same,inhibition of growth at 10 µM,[6],43%
same,inhibition of growth at 10 µM,[7],1%
same,inhibition of growth at 10 µM,[8],100%
same,inhibition of growth at 10 µM,[9],35%
same,inhibition of growth at 10 µM,[10],58%
same,inhibition of growth at 10 µM,[11],27%
same,inhibition of growth at 10 µM,[13],46%
same,inhibition of growth at 10 µM,[15],80%
same,inhibition of growth at 10 µM,[16],38%
same,inhibition of growth at 10 µM,[17],28%
same,inhibition,[18],27%
CCOC(=O)c1cc(C(=O)c2cc(OC)c(OC)c(OC)c2)n2cccc(C#N)c12,GI50,[20],0.22 µM
same,growth at 10 µM,[21],-14%
same,inhibition of growth at 10 µM,[1],66%
same,inhibition of growth at 10 µM,[2],81%
same,GI50,[22],0.252 µM
same,inhibition of growth at 10 µM,[3],100%
same,inhibition of growth at 10 µM,[4],100%
same,GI50,[23],0.19 µM
same,GI50,[24],0.03 µM
same,GI50,[25],0.236 µM
same,inhibition of growth at 10 µM,[5],60%
same,GI50,[26],0.158 µM
same,GI50,[27],0.142 µM
same,GI50,[28],0.23 µM
same,inhibition of growth at 10 µM,[6],89%
same,inhibition of growth at 10 µM,[7],72%
same,GI50,[29],0.222 µM
same,growth at 10 µM,[30],-13%
same,inhibition of growth at 10 µM,[8],82%
same,growth at 10 µM,[31],-10%
same,GI50,[32],0.201 µM
same,GI50,[33],0.063 µM
same,inhibition of growth at 10 µM,[9],44%
same,GI50,[34],0.18 µM
same,inhibition of growth at 10 µM,[10],100%
same,inhibition of growth at 10 µM,[11],100%
same,inhibition of growth at 10 µM,[12],50%
same,inhibition of growth at 10 µM,[13],71%
same,IC50,[14],12.1 µM
same,inhibition of growth at 10 µM,[15],79%
same,inhibition of growth at 10 µM,[16],68%
same,inhibition of growth at 10 µM,[17],74%
same,inhibition,[18],69%
same,growth at 10 µM,[35],-29%
same,GI50,[36],0.171 µM
same,GI50,[37],0.332 µM
same,GI50,[38],0.164 µM
same,GI50,[39],0.094 µM
CCOC(=O)c1cc(C(=O)c2cc(OC)c(OC)c(OC)c2)n2c(C)cccc12,GI50,[20],0.034 µM
same,growth at 10 µM,[21],-42%
same,inhibition of growth at 10 µM,[1],78%
same,inhibition of growth at 10 µM,[2],100%
same,GI50,[22],0.056 µM
same,inhibition of growth at 10 µM,[3],100%
same,inhibition of growth at 10 µM,[4],100%
same,GI50,[23],0.06 µM
same,GI50,[24],0.03 µM
same,GI50,[25],0.04 µM
same,growth at 10 µM,[40],-32%
same,inhibition of growth at 10 µM,[5],63%
same,GI50,[26],0.065 µM
same,GI50,[27],0.066 µM
same,GI50,[28],0.122 µM
same,inhibition of growth at 10 µM,[6],26%
same,inhibition of growth at 10 µM,[7],96%
same,GI50,[29],0.053 µM
same,growth at 10 µM,[30],-3%
same,inhibition of growth at 10 µM,[8],88%
same,growth at 10 µM,[31],-32%
same,GI50,[32],0.052 µM
same,GI50,[33],0.033 µM
same,inhibition of growth at 10 µM,[9],63%
same,GI50,[34],0.04 µM
same,inhibition of growth at 10 µM,[10],100%
same,inhibition of growth at 10 µM,[11],100%
same,inhibition of growth at 10 µM,[12],57%
same,inhibition of growth at 10 µM,[13],86%
same,IC50,[14],8.02 µM
same,inhibition of growth at 10 µM,[15],91%
same,inhibition of growth at 10 µM,[16],77%
same,inhibition of growth at 10 µM,[17],63%
same,inhibition,[18],83%
same,growth at 10 µM,[35],-48%
same,GI50,[36],0.108 µM
same,GI50,[37],0.111 µM
same,GI50,[38],0.121 µM
same,GI50,[39],0.061 µM
